One substance from PMC6751662, “Pharmacological and functional similarities of the human neuropeptide Y system in C. elegans challenges phylogenetic views on the FLP/NPR system” (Cell Communication and Signaling : CCS, 2019) can be followed below.

Holding throughout (format): cell-based, C. elegans
One test concerns the target T1, NPR-3 (Caenorhabditis elegans, UniProt P90745).
T1 construct: expressed in transfected cells; host or cells: HEK293
T1 sequence (P90745 1-376): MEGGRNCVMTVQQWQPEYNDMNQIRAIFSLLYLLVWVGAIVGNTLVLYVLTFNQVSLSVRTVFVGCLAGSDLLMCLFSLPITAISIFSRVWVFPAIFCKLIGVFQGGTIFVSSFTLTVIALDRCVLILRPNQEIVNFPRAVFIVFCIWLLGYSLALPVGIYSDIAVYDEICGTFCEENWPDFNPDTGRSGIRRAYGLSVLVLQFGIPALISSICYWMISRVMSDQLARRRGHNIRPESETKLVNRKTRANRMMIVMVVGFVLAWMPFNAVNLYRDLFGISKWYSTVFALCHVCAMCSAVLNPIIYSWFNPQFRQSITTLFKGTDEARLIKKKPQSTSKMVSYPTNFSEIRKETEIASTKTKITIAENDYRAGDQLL
The test is described as follows: IP accumulation assay, endogenous Gαq + mock, NPR-3. As to conditions: 1 h, HBSS + 20 mM LiCl, HEK293 receptor + empty vector, HTRF IP-One, mean of >=3 independent experiments. Here is the method:
(§1) For measuring IP accumulation, HEK293 cells grown to 70–80% confluency in 6-well plates were transiently co-transfected using Metafectene Pro (2.5 μl/μg DNA; Biontex) with plasmids containing receptor and/or mock (empty pcDNA3.1) (for endogenous Gq-coupling) using 4 μg total DNA in a ratio of 3:1 following the manufacturer’s instructions. For testing Gα16- and GαΔ6qi4myr-coupling, plasmids encoding the corresponding Gα protein were co-transfected instead of mock. Gα16 is naturally promiscuous and stimulates the phospholipase C (PLC) pathway leading to IP production, while the exchange of the C-terminal four amino acids of Gαq for the corresponding residues of Gαi1 in the chimeric GαΔ6qi4myr confers the ability to couple to Gi/o protein-preferring receptors but still stimulate PLC, thus specifically redirecting downstream cellular signaling. 16 h post transfection, the cells were seeded into white 384-well plates at a density of 20,000 cells/well. Media was removed 24 h later and the cells were incubated with the indicated concentration of peptides for 1 h in HBSS + 20 mM LiCl. IP accumulation was measured with the HTRF-based IP-One Gq kit (Cisbio) on a microplate reader (Tecan Spark).
(§2) For in vitro activation, data is presented as mean ± SEM of at least three independent experiments conducted in technical triplicate. […]
(TR-FRET usually uses a lanthanide donor and a delayed reading to cut background.)

The next test has as its target T2, NPR-5b (Caenorhabditis elegans, UniProt Q6F3C9).
T2 sequence (Q6F3C9 1-433): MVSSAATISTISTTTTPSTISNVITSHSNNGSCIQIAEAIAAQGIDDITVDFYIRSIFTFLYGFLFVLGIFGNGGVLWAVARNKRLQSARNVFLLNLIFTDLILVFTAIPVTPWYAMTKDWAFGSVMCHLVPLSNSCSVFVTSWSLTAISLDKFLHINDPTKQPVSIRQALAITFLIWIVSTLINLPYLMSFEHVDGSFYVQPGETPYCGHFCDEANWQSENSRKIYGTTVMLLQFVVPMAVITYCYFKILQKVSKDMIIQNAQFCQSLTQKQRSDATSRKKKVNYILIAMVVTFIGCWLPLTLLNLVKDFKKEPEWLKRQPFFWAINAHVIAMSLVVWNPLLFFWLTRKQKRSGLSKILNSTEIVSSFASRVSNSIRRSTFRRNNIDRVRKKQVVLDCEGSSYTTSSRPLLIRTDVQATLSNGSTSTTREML
The test is described as follows: IP accumulation assay, endogenous Gαq + mock, NPR-5b. Conditions: 1 h, HBSS + 20 mM LiCl, HEK293 receptor + empty vector, HTRF IP-One, mean of >=3 independent experiments. Here is the method:
as §1, §2

Another test deals with NPR-6. The test is described as follows: IP accumulation assay, co-transfected Gα16, NPR-6. Conditions: 1 h, HBSS + 20 mM LiCl, HEK293 receptor + Gα16, HTRF IP-One, mean of >=3 independent experiments. The procedure: as §1, §2
In the next test the target is T3, NPR-1 (Caenorhabditis elegans, UniProt Q18534).
T3 sequence (Q18534 1-457): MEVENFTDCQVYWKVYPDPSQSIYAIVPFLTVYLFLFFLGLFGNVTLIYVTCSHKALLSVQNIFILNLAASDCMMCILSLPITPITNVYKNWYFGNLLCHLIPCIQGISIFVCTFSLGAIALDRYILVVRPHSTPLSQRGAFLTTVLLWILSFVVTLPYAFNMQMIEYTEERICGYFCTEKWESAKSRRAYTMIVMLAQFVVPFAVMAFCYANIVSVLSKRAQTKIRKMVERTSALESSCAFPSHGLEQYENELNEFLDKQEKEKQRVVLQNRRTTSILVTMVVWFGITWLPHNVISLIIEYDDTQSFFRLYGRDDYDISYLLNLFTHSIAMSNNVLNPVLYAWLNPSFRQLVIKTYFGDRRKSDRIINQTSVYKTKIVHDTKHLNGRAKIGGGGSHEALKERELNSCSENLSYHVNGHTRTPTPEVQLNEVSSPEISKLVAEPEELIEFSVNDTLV
The test is described as follows: IP accumulation assay, co-transfected Gα16, NPR-1. On the set-up: expressed in transfected cells; host or cells: HEK293. As to conditions: 1 h, HBSS + 20 mM LiCl, HEK293 receptor + Gα16, HTRF IP-One, mean of >=3 independent experiments. The procedure: as §1, §2

[1] abbreviates: 0.1 nM peptide (so in the source).

As for “APKPKFIRF-NH2 [FLP-5-1, C. elegans FMRFamide-like peptide, C-terminally amidated, synthesized by SPPS]”, the “IP assay endog. Gαq + mock, NPR-3” value is reported as 0.92 x-fold of basal on NPR-3 (setting [1]) and 1.07 x-fold of basal on NPR-3 (10 µM peptide). The results for the “IP assay endog. Gαq + mock, NPR-5b” value on NPR-5b (setting [1]) and on NPR-5b (10 µM peptide) were 0.93 x-fold of basal and 1.11 x-fold of basal, respectively. Also, the “IP assay endog. Gαq + Gα16, NPR-6” value in the test on NPR-6 (setting [1]) is listed as 1.01 x-fold of basal; with NPR-6 (10 µM peptide), 0.96 x-fold of basal. In addition, the “IP assay endog. Gαq + Gα16, NPR-1” value at NPR-1 (setting [1]) was 0.90 x-fold of basal; at NPR-1 (10 µM peptide), 0.81 x-fold of basal.
